Values joined by “and” are separate entries in the source; they are usually repeats but may differ in a detail not shown here. Identical values can stand only once. Like-named read-outs stand apart in the source and are kept apart here.
Legend:
[1] = tested on: RPMI 8226; assay: Cell growth inhibition (resazurin), RPMI 8226; details: for cytotoxicity against RPMI 8226, in words: from EC50 values
[2] = tested on: U266; assay: Cell growth inhibition (resazurin), U266; details: for EC50: 48 hours drug exposure; for cytotoxicity against U266, in words: from EC50 values
[3] = tested on: PC-3; assay: Cell growth inhibition (resazurin), PC-3; assay type: cell-based, human
[4] = tested on: NF-κB; assay: NF-κB-mediated luciferase reporter gene assay, HEK293 NF-κB/Luc cells, TNF-α stimulation; assay type: cell-based, human; details: for effect on luciferase activity upon TNF-α stimulation, in words: pretreatment of NF-κB/Luc 293 cells
Method: The HEK293 NF-κB/luciferase reporter cell line is a derivative of the human embryonic kidney cell line (ATCC; CRL-1573) and carries a luciferase reporter gene under the regulation of 5× NF-κB binding sites. […] When performing the luciferase assay, the DMEM basal medium was replaced with phenol-red free DMEM basal medium and the G418 was omitted.
For NF-κB-mediated luciferase assays, HEK293 NF-κB/luciferase cells were seeded at 1.5×10^4 cells/well in 90 μl phenol-red free DMEM complete medium into Corning 3917 white opaque-bottom tissue culture plates. For Formula II-2, Formula II-4, Formula II-5A, and Formula II-18, a 400 μM starting dilution was made in 100% DMSO and this dilution was used to generate a 8-point half log dilution series. […] For Formula II-20, a 2.5 mM or 8 mM starting solution was made in 100% DMSO and the final test concentrations ranged from 6.3 μM to 2.0 nM or 20 μM to 6.3 nM, respectively. The plates were returned to the incubator for 1 hour. After 1 hr pretreatment, 10 μl of a 50 ng/ml TNF-α solution, prepared in the phenol-red free DMEM medium was added, and the plates were incubated for an additional 6 hr.
At the end of the TNF-α stimulation, 100 μl of Steady Lite HTS luciferase reagent (Packard Bioscience) was added to each well and the plates were left undisturbed for 10 min at room temperature before measuring the luciferase activity. The relative luciferase units (RLU) were measured by using a Fusion microplate fluorometer (Packard Bioscience).

[5] = tested on: NCI-H292; assay: Cell growth inhibition (resazurin), NCI-H292; details: for EC50: Homo sapiens, NCI-H292, 48 h
[6] = target: T1, trypsin-like activity of purified rabbit muscle 20S proteasome (Oryctolagus cuniculus, UniProt G1SWK8); assay: In vitro inhibition of 20S proteasome trypsin-like activity (Boc-LRR-AMC)
T1 sequence (G1SWK8 1-271): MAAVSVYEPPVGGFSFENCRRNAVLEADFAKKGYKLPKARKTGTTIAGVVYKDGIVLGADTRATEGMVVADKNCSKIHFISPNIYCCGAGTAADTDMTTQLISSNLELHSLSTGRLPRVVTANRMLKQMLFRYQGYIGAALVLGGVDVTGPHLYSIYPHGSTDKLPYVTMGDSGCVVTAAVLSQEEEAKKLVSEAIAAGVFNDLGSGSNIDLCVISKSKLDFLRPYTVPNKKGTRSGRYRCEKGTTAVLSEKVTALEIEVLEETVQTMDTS

[7] = target: T1, trypsin-like activity of purified rabbit muscle 20S proteasome; assay: biochemical
[8] = target: T2, caspase-like activity of purified rabbit muscle 20S proteasome (Oryctolagus cuniculus, UniProt A0A5F9DQW2); assay: In vitro inhibition of 20S proteasome caspase-like activity (Z-LLE-AMC)
T2 sequence (A0A5F9DQW2 1-212): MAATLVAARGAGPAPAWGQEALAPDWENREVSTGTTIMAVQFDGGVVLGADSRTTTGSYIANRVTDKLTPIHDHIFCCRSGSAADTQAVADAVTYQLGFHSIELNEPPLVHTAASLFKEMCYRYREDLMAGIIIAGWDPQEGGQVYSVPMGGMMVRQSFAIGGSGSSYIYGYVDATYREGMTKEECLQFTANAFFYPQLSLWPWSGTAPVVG

[9] = tested on: HT-29; assay: Cell growth inhibition (resazurin), HT-29
[10] = tested on: OVCAR-3; assay: Cell growth inhibition (resazurin), OVCAR-3; details: for EC50: 48 hours drug exposure
[11] = target: T3, chymotrypsin-like activity of purified rabbit muscle 20S proteasome (Oryctolagus cuniculus, UniProt G1T4Q9); assay: In vitro inhibition of 20S proteasome chymotrypsin-like activity (suc-LLVY-AMC)
T3 sequence (G1T4Q9 1-263): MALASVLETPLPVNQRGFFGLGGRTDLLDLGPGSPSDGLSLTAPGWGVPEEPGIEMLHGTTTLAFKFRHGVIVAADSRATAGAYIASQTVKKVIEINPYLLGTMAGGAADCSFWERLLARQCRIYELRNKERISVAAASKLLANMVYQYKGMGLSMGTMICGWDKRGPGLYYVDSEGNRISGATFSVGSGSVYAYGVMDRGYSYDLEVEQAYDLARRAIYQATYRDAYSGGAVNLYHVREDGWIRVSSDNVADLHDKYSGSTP

[12] = tested on: MDA-MB-231; assay: Cell growth inhibition (resazurin), MDA-MB-231
[13] = tested on: B16-F10; assay: Cell growth inhibition (resazurin), B16-F10
[14] = Homo sapiens, RPMI-8226, 48 h, read-out: RPMI 8226 EC50, Table 2, 48 hours drug exposure, mean ± SD where n≥3
[15] = read-out: RPMI 8226 EC50, Table 2, 48 hours drug exposure, mean ± SD where n≥3
[16] = Homo sapiens, U-266, 48 h, read-out: U266 EC50, Table 2
[17] = EC50 Caspase-like, Table 6, values in nM
[18] = EC50 values, caspase-like activity, summary of Table 6
[19] = EC50 Chymotrypsin-like, Table 6, values in nM
[20] = EC50 Caspase-like, Table 6, values in μM
[21] = EC50 values, chymotrypsin-like activity, summary of Table 6
[22] = Homo sapiens, HEK293, read-out: EC50, NF-κB-mediated luciferase reporter gene assay, Table 5, values in μM, 1 hr pretreatment, TNF-α 6 hr

C[C@@]12OC(=O)[C@]1(C(O)[C@@H]1C=CCCC1)NC(=O)[C@@H]2CCI (single isomer, unassigned) [Formula II-19]
EC50 ([1]; Homo sapiens, RPMI-8226, 48 h, read-out: EC50 against RPMI 8226, Table 1, 48 hours drug exposure): 5.9 nM
EC50 [1, 14]: 5.9 nM
EC50 ([1]; Homo sapiens, RPMI-8226, read-out: Cytotoxicity RPMI EC50, Table 12): 6 nM
cytotoxicity against RPMI 8226, in words [1]: cytotoxic
EC50 ([1]; read-out: Cytotoxicity RPMI EC50, Table 12): 7 nM
EC50 ([1]; read-out: EC50 against RPMI 8226, Table 1, 48 hours drug exposure): 7.1 nM
EC50 [1, 15]: 7.1 nM
EC50 ([2]; Homo sapiens, U-266, 48 h, read-out: EC50 against U266, Table 1): 3.2 nM
EC50 [2, 16]: 3.2 nM
cytotoxicity against U266, in words [2]: cytotoxic
EC50 ([2]; read-out: EC50 against U266, Table 1): 3.4 nM
EC50 ([2]; read-out: U266 EC50, Table 2): 3.4 nM
EC50 ([3]; Homo sapiens, PC-3, 48 h, Table 1, 48 hours drug exposure, mean ± SD where n≥3, read-out: EC50 against PC-3): 29 ± 4 nM
cytotoxicity against PC-3, in words ([3]; from EC50 values): cytotoxic
EC50 ([4]; Homo sapiens, HEK293, read-out: EC50, NF-κB-mediated luciferase reporter gene assay, Table 5, values in nM, 1 hr pretreatment, TNF-α 6 hr): 7 nM
EC50 ([4]; Homo sapiens, HEK293, read-out: NF-κB EC50, Table 12): 10 nM
effect on luciferase activity upon TNF-α stimulation, in words [4]: dose-dependent decrease
EC50 ([5]; read-out: EC50 against NCI-H292, Table 1, 48 hours drug exposure, mean ± SD where n≥3): 27 ± 3.8 nM
cytotoxicity against NCI-H292, in words ([5]; from EC50 values): cytotoxic
inhibition of the trypsin-like activity of the 20S proteasome, in words ([6]; under the conditions tested): able to inhibit
EC50 [7]: 13 nM and 15 nM
EC50 [8, 17]: 573 nM and 739 nM
EC50 [8, 18]: 213 to 850 nM
EC50 ([8]; Proteasome Caspase-like EC50, Table 12): 573 nM and 739 nM
EC50 ([9]; Homo sapiens, HT-29, 48 h, read-out: EC50 against HT-29, Table 1, 48 hours drug exposure, mean ± SD where n≥3): 11 ± 1.6 nM
cytotoxicity against HT-29, in words ([9]; from EC50 values): cytotoxic
EC50 ([10]; Homo sapiens, OVCAR-3, 48 h, read-out: EC50 against OVCAR-3, Table 1): 24 nM
cytotoxicity against OVCAR-3, in words ([10]; from EC50 values): cytotoxic
EC50 ([10]; read-out: EC50 against OVCAR-3, Table 1): 20 nM
EC50 [11, 19]: 3 nM
EC50 ([11]; Proteasome Chymotrypsin-like EC50, Table 12): 3 nM
EC50 ([12]; Homo sapiens, MDA-MB-231, 48 h, read-out: EC50 against MDA-MB-231, Table 1, 48 hours drug exposure, mean ± SD where n≥3): 14 ± 3.2 nM
cytotoxicity against MDA-MB-231, in words ([12]; from EC50 values): cytotoxic
EC50 ([13]; Mus musculus, B16-F10, 48 h, read-out: EC50 against B16-F10, Table 1, 48 hours drug exposure, mean ± SD where n≥3): 13 ± 1.9 nM
cytotoxicity against B16-F10, in words ([13]; from EC50 values): cytotoxic

CC[C@H]1C(=O)N[C@@]2([C@@H](O)C3CCCCC3)C(=O)O[C@@]12C [Formula II-3]
EC50 [1, 14]: > 20000 nM
EC50 ([5]; read-out: EC50 against NCI-H292): > 20000 nM
inhibition of the trypsin-like activity of the 20S proteasome, in words [6]: able to inhibit
EC50 [7]: 5500 nM and 7700 nM
EC50 [8, 20]: > 20000 nM
EC50 [11, 19]: 964 nM
EC50 [11, 21]: 207 to 964 nM

C[C@@]12OC(=O)[C@]1([C@@H](O)[C@@H]1C=CCCC1)NC(=O)[C@@H]2CCN=[N+]=[N-] [Formula II-29]
EC50 [1, 14]: 4280 nM
cytotoxicity against RPMI 8226, in words [1]: cytotoxic
EC50 [1, 15]: 6940 nM
cytotoxicity against U266, in words [2]: cytotoxic
EC50 [4, 22]: 1200 nM
effect on luciferase activity upon TNF-α stimulation, in words [4]: dose-dependent decrease
EC50 ([4]; read-out: EC50, NF-κB-mediated luciferase reporter gene assay, Table 5, values in μM, 1 hr pretreatment, TNF-α 6 hr): 1400 nM
inhibition of the trypsin-like activity of the 20S proteasome, in words ([6]; under the conditions tested): able to inhibit
EC50 [7]: 175 nM and 254 nM
EC50 [8, 17]: 535 nM and 520 nM
EC50 [8, 18]: 213 to 850 nM
EC50 [11, 19]: 6 nM and 8 nM
EC50 [11, 21]: 2 to 11 nM

CCC[C@H]1C(=O)N[C@@]2([C@@H](O)[C@@H]3C=CCCC3)C(=O)O[C@@]12C [Formula II-30]
EC50 [1, 14]: 4900 nM
cytotoxicity against RPMI 8226, in words [1]: cytotoxic
EC50 [1, 15]: 4160 nM
EC50 [2, 16]: 889 nM
cytotoxicity against U266, in words [2]: cytotoxic
EC50 ([2]; read-out: U266 EC50, Table 2): 1240 nM
EC50 [4, 22]: 2200 nM
effect on luciferase activity upon TNF-α stimulation, in words [4]: dose-dependent decrease
inhibition of the trypsin-like activity of the 20S proteasome, in words ([6]; under the conditions tested): able to inhibit
EC50 [7]: 905 nM and 1200 nM
EC50 [8, 17]: 956 nM
EC50 [8, 20]: 1300 nM
EC50 ([8]; EC50 values, caspase-like activity, range in mixed units, summary of Table 6, range from nM to μM): 956 to 8700 nM
EC50 [11, 19]: 21 nM
EC50 [11, 21]: 13 to 88 nM
